# Results: patent US20220023258A1, “METHODS OF TREATING CONDITIONS RELATED TO THE S1P1 RECEPTOR” (Arena Pharmaceuticals, Inc., priority 2018, published 2022)
# Entries after “also recorded” stand apart in the source; their conditions may differ. Counter-ions that a name gives are not always drawn.
# Key:
# [1] = tested on: healthy adult subjects; test: Multiple ascending dose study: safety and tolerability
# Method: (§1) The following safety assessments were conducted: physical examinations with ophthalmoscopy, clinical laboratory tests (serum chemistry, coagulation, and urinalysis), vital signs, continuous telemetry (12 lead ECG), safety ECGs, pulmonary function testing (PFT), serum protein electrophoresis (SPEP) and serum immunoelectrophoresis (IEP), and adverse event reporting.
# [2] = tested on: lymphocytes; test: Dose-ranging study in ulcerative colitis: lymphocyte counts; type: in vivo, human; conditions: 12 weeks
# Text: Exploratory endpoints included change from baseline in lymphocyte counts at Weeks 1, 2, 4, 8, and 12; proportion of patients achieving clinical remission at Week 12; and proportion of patients who achieve clinical response at Week 12.
# [3] = tested on: patients with ulcerative colitis; test: Dose-ranging study in ulcerative colitis: safety; conditions: for serious adverse events (SAEs): placebo 11.1%;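 on all read-outs here: Double-blind randomized parallel-group trial versus placebo, with the study drug given orally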
# Method: Patients were instructed to take their capsule on an empty stomach (overnight fast of approximately 8 hours) and to avoid eating for approximately 1 hour after dosing.
# [4] = tested on: lymphocytes; test: Multiple ascending dose study: lymphocyte counts; type: in vivo, human; conditions: for Lymphocytes On Treatment Mean (SD) / Lymphocytes Percent Change from Baseline Mean / Lymphocytes Percent Change from Baseline Median / Lymphocytes Percent Change from Baseline Min, Max: day 21
# Method: (§2) A randomized, double-blind, placebo-controlled, sequential, ascending, multiple dose study to assess the safety, tolerability, and pharmacokinetics of the L-arginine salt of Compound 1 administered to healthy adult subjects was conducted. This study was designed to evaluate the safety, tolerability, pharmacokinetics, and pharmacodynamics of the L-arginine salt of Compound 1.
# (§3) Cohort 1 was dosed with 0.7 mg (by administering two 0.35 mg formulations) for 21 days. Cohort 2 was dosed with 1.35 mg (by administering both a 0.35 mg formulation and a 1 mg formulation) for 21 days. Cohort 3 was dosed with 2.0 mg for 21 days. Cohort 4 was dosed with 0.35 mg for 7 days and then with 2.0 mg for 14 days. Cohort 5 was dosed with 0.5 for 7 days and then with 3.0 mg (by administering both a 1 mg formulation and a 2 mg formulation) for 14 days.
# [5] = tested on: patients with ulcerative colitis; test: Fecal calprotectin and C-reactive protein in ulcerative colitis study; type: in vivo, human
# Method: The modified Mayo Clinic score (modified MCS) included endoscopic, rectal bleeding (RB), and stool frequency (SF) subscores. […] Endoscopic improvement was defined as a subscore ≤1. […] Comparisons between subgroups were assessed with a Wilcoxon rank-sum test (2-sided P values). Analysis of correlation between variables was conducted using the Spearman's rank coefficient (2-sided P values).
# [6] = tested on: healthy adult subjects; test: Multiple ascending dose study: heart rate, blood pressure, QTc; type: in vivo, human; conditions: Day 1 to Day 23
# Method: as §2, §3, §1
# [7] = 0.35 mg for 7 days then 2.0 mg for 14 days
# [8] = 0.5 mg for 7 days then 3.0 mg for 14 days
compound,measurement,setting,value
O=C(O)C[C@H]1CCc2c1[nH]c1ccc(OCc3ccc(C4CCCC4)c(C(F)(F)F)c3)cc21 [L-arginine salt of Compound 1],"mildly abnormal reproducible (NCS) pulmonary function test findings (FEV1 below 80%, FVC) post-dose",[1]; 1.35 mg dose,One subject
same,subjects who developed new 1″ degree atrioventricular block,[1]; 2 mg group,1 subject
same,subjects with mildly abnormal post-treatment liver function tests (ALT & AST >2× ULN),[1]; 2 mg group,1 subject
same,subjects who developed new 1″ degree atrioventricular block,"[1]; 0.5, 3 mg group",1 subject
same,subjects with mildly abnormal post-treatment liver function tests (ALT & AST >2× ULN),[1]; 0.5 escalating to 3 mg group,1 subject
same,SAEs or deaths,[1]; all dose levels,No SAEs or deaths occurred
same,ophthalmoscopy findings,[1]; all dose levels,No clinically significant change from baseline
same,"other safety issues (vital signs, ECGs, PFTs, ophthalmoscopy, clinical laboratory tests)",[1]; all dose levels,no other clinically significant safety issues
same,second degree heart block,[1]; all dose levels,No second degree heart block was found
same,subjects discontinued due to an adverse event,[1]; all dose levels,No subjects were discontinued due to an adverse event
same,most common adverse events,"[1]; all dose levels, 21 days","contact dermatitis and leukopenia, followed by constipation, diarrhea, nausea, and abdominal pain"
same,severity of adverse events,"[1]; all dose levels, 21 days",majority of adverse events were mild
same,tolerability,"[1]; all dose levels, 21 days",tolerated at all dose levels; also recorded: well tolerated at all doses tested
same,reduction in lymphocytes relative to placebo,[2]; 1 mg q.d.,37%
same,reduction in lymphocytes relative to placebo,"[2]; 2 mg q.d., p<0.001",57%
same,% of Patients with Serious TEAE,[3]; 1 mg (n = 52),(5.8) %
same,% of Patients with TEAE Leading to Discontinuation of Study Drug,[3]; 1 mg (n = 52),(5.8) %
same,% of Patients with any TEAE,[3]; 1 mg (n = 52),(59.6) %
same,Number of Deaths of Any Reason,[3]; 1 mg (n = 52),0
same,Number of Patients with Serious TEAE,[3]; 1 mg (n = 52),3
same,Number of Patients with TEAE Leading to Discontinuation of Study Drug,[3]; 1 mg (n = 52),3
same,Number of Patients with any TEAE,[3]; 1 mg (n = 52),31
same,discontinuations from study related to bradycardia or AV block,"[3]; 1 mg and 2 mg q.d., 12 weeks",no discontinuations from study related to bradycardia or AV block
same,liver function tests (LFTs) compared to placebo,"[3]; 1 mg and 2 mg q.d., 12 weeks",no increases in liver function tests
same,reports of macular edema or pulmonary function test abnormalities,"[3]; 1 mg and 2 mg q.d., 12 weeks",no reports of macular edema or pulmonary function test abnormalities; also recorded: no reports of macular edema; and no reports of abnormal pulmonary function tests
same,serious adverse events related to heart rate changes or AV block,"[3]; 1 mg and 2 mg q.d., 12 weeks",No serious adverse events related to heart rate changes or AV block
same,severe or life-threatening infection,"[3]; 1 mg and 2 mg q.d., 12 weeks",No severe or life-threatening infection occurred
same,tolerability,"[3]; 1 mg and 2 mg q.d., 12 weeks",well tolerated
same,serious adverse events (SAEs),[3]; 1 mg q.d.,5.8%
same,% of Patients with TEAE Leading to Discontinuation of Study Drug,[3]; 2 mg (n = 50),(8.0) %
same,% of Patients with any TEAE,[3]; 2 mg (n = 50),(56.0) %
same,Number of Deaths of Any Reason,[3]; 2 mg (n = 50),0
same,Number of Patients with Serious TEAE,[3]; 2 mg (n = 50),0
same,Number of Patients with TEAE Leading to Discontinuation of Study Drug,[3]; 2 mg (n = 50),4
same,Number of Patients with any TEAE,[3]; 2 mg (n = 50),28
same,serious adverse events (SAEs),[3]; 2 mg q.d.,0%
same,"mean change (decrease) in heart rate, hourly ECGs","[3]; Day 1, any time point, both 1 mg and 2 mg groups",< 10 bpm
same,mean decrease in heart rate from baseline,"[3]; after Day 1 through 12 weeks, either dose group (1 mg, 2 mg)",≤ 6 bpm
same,Lymphocytes On Treatment Mean (SD),[4]; [7],0.62 (0.18) 10^3/μl
same,Lymphocytes Percent Change from Baseline Mean,[4]; [7],−67.34%
same,Lymphocytes Percent Change from Baseline Median,[4]; [7],−67.54%
same,"Lymphocytes Percent Change from Baseline Min, Max",[4]; [7],−77.27 to −57.14%
same,Lymphocytes On Treatment Mean (SD),[4]; [8],0.62 (0.25) 10^3/μl
same,Lymphocytes Percent Change from Baseline Mean,[4]; [8],−66.16%
same,Lymphocytes Percent Change from Baseline Median,[4]; [8],−65.02%
same,"Lymphocytes Percent Change from Baseline Min, Max",[4]; [8],−85.19 to −53.85%
same,Lymphocytes On Treatment Mean (SD),[4]; 0.7 mg for 21 days,1.06 (0.28) 10^3/μl
same,Lymphocytes Percent Change from Baseline Mean,[4]; 0.7 mg for 21 days,−41.03%
same,Lymphocytes Percent Change from Baseline Median,[4]; 0.7 mg for 21 days,−40.37%
same,"Lymphocytes Percent Change from Baseline Min, Max",[4]; 0.7 mg for 21 days,−55.56 to −23.08%
same,Lymphocytes On Treatment Mean (SD),[4]; 1.35 mg for 21 days,0.89 (0.32) 10^3/μl
same,Lymphocytes Percent Change from Baseline Mean,[4]; 1.35 mg for 21 days,−53.43%
same,Lymphocytes Percent Change from Baseline Median,[4]; 1.35 mg for 21 days,−51.85%
same,"Lymphocytes Percent Change from Baseline Min, Max",[4]; 1.35 mg for 21 days,−68.75 to −30.77%
same,Lymphocytes On Treatment Mean (SD),[4]; 2.0 mg for 21 days,0.62 (0.18) 10^3/μl
same,Lymphocytes Percent Change from Baseline Mean,[4]; 2.0 mg for 21 days,−68.81%
same,Lymphocytes Percent Change from Baseline Median,[4]; 2.0 mg for 21 days,−69.44%
same,"Lymphocytes Percent Change from Baseline Min, Max",[4]; 2.0 mg for 21 days,−80.00 to −55.56%
same,dose with maximal effect on lymphocyte lowering (dose-dependent),[4]; multiple dosing 21 days,2 mg
same,decrease in FC versus placebo across the study,"[5]; 1 mg, did not reach statistical significance, P=0.08",0.71
same,decrease in CRP compared with placebo across the study,"[5]; 1 mg, mixed-model for repeat measures, P=0.02",0.72
same,"median FC at week 12, patients who did not achieve remission",[5]; 2 mg,1129 µg/g
same,"median FC at week 12, patients who achieved remission","[5]; 2 mg, P<0.001 vs no remission",62.0 µg/g
same,decrease in FC compared with placebo across the study,"[5]; 2 mg, mixed-model for repeat measures, P<0.001",0.42
same,decrease in CRP compared with placebo across the study,"[5]; 2 mg, mixed-model for repeat measures, P=0.01",0.70
same,time at which decreases in FC and CRP levels versus placebo were first observed,"[5]; 2 mg, sustained through week 12",4 week
same,"Maximum post-dose QTc, Change from Baseline Mean",[6]; [7],−0.10 MS
same,"Maximum post-dose QTc, Change from Baseline Median",[6]; [7],0.50 MS
same,"Maximum post-dose QTc, Change from Baseline Min, Max",[6]; [7],−19.00 to 17.00 MS
same,"Maximum post-dose QTc, On Treatment Mean (SD)",[6]; [7],411.10 (19.88) MS
same,"Maximum post-dose QTc, Change from Baseline Mean",[6]; [8],5.60 MS
same,"Maximum post-dose QTc, Change from Baseline Median",[6]; [8],5.00 MS
same,"Maximum post-dose QTc, Change from Baseline Min, Max",[6]; [8],−5.00 to 15.00 MS
